Our source for the TGI values is PubChem BioAssay (NCI).

Experiment in all cases: NCI anticancer screen, dose series, 48 h
The test system of test [1] is SW-620 colon.
Test [2] has as its system TK-10 renal.
Test [3] has as its system HOP-62 NSCLC.
Test [4] relates to HL-60(TB) leukemia.
The subject of test [5] is KM12 colon.
The subject of test [6] is MALME-3M melanoma.
In test [7] the test system is MDA-MB-435.
Test [8] relates to OVCAR-3 ovarian.
The test system of test [9] is MDA-MB-231 breast.
Test [10] deals with IGROV1 ovarian.
Test [11] deals with UACC-257 melanoma.
Test [12] deals with ACHN renal.
Test [13] deals with SK-MEL-28 melanoma.
Test [14] relates to SF-539 CNS.
Test [15] concerns CCRF-CEM leukemia.
Test [16] concerns SNB-19 CNS.
Test [17] deals with A549 NSCLC.
The subject of test [18] is T-47D breast.
Test [19] relates to OVCAR-4 ovarian.
In test [20] the test system is HOP-92 NSCLC.

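A five-concentration, 48-hour dose response in 96-well plates underlies each endpoint, interpolated linearly between surrounding concentrations. TGI marks complete inhibition of growth.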 Where a SMILES comes first, the peptide text is derived from it. The star is where a group is joined. Boc = CC(C)(C)OC(=O)*

For the compound `CN(C)CCn1c(=O)oc2cc(C(=O)CN3CCOCC3)ccc21`, the TGI in [1], in test [2], in test [3], in test [4], in test [5] and in test [6] was over 100 µM throughout. In addition, the TGI in [7], in test [8], in [9], in [10], in test [11] and in test [12] was over 100 µM each time. Moreover, the TGI in test [13], in test [14], in test [15] and in test [16] was over 100 µM throughout.

Turning to `O=S(Nc1ccccc1)c1ccc(-c2ccccc2)cc1` (centres undefined), the TGI in test [1], in test [2], in test [3], in test [4], in test [5] and in test [6] was over 100 µM in each case. Also, the TGI in [7], in test [17], in test [8], in test [9], in test [10] and in test [11] was over 100 µM throughout. Moreover, the TGI in test [12], in test [18], in test [19], in [13], in test [14] and in test [15] was over 100 µM each time. This compound also came in with a TGI in test [16] of over 100 µM.

With `CCN(CC)CCSc1n[nH]c(-c2c[nH]c3nc(C)ccc3c2=O)n1`, the TGI in test [1], in test [2], in [3], in test [4], in test [5] and in test [6] was over 100 µM throughout. Besides, the TGI in [7], in test [17], in [8], in test [9], in test [10] and in [11] was over 100 µM each time. Moreover, the TGI in [12], in [18], in [19], in test [13], in [15] and in test [16] was over 100 µM throughout.

On to `CC(=O)/C=C(/C=N/O)c1ccccc1`, for which the TGI in [1], in test [2], in test [3], in [5], in [6] and in [7] was over 100 µM throughout. Moreover, the TGI in test [17], in test [8], in [9], in test [10], in test [11] and in test [12] was over 100 µM each time. Moreover, the TGI in [18], in [19], in test [13], in test [14], in [15] and in test [16] was over 100 µM throughout.

With `COCOc1cc(OC)c(Br)cc1C/C(=N/O)C(=O)OC`, the TGI in test [1], in test [2], in test [3], in test [4], in test [5] and in [6] was over 100 µM throughout. Also, the TGI in test [7], in test [17], in test [8], in test [9], in test [10] and in test [11] was over 100 µM in each case. The TGI in [12] is over 100 µM; in test [18], 70.3 µM; in [19], over 100 µM; in test [13], over 100 µM; in test [14] it was over 100 µM; in test [15], over 100 µM. The TGI in test [16] was over 100 µM.

Take `CCOC(=O)CCSS(=O)(=O)C(F)(F)F`: the TGI in [1], in [2], in [3], in test [4], in test [5] and in test [20] was over 100 µM throughout. Also, the TGI in test [7], in test [17], in [8], in [10], in [11] and in [12] was over 100 µM in each case. Also, the TGI in [18], in test [19], in [13], in test [15] and in test [16] was over 100 µM each time.

Regarding `COC(=O)C(Cc1c[nH]c2ccccc12)NC(=O)C(Cc1c[nH]c2ccccc12)NC(=O)C(Cc1c[nH]c2ccccc12)NC(=O)OC(C)(C)C` (stereo not drawn) (Boc-Trp-Trp-Trp-OMe; configuration not given here), the TGI in test [1] was 40.7 µM; in test [2], 46.7 µM; in [3] it was 32.7 µM; in test [4], 47.4 µM; in [5], 38.2 µM; in test [6], over 100 µM. Moreover, the TGI in [20] was 33 µM; in test [17], over 100 µM; in test [9] it was 93.1 µM; in test [10] it was 40.5 µM; in [11], over 100 µM; in [12] it was 32.5 µM. Moreover, the TGI worked out at 29.4 µM in test [18], 33.8 µM in test [13] and 47 µM in test [16].

Turning to `C[n+]1c2ccccc2c(C(=O)NC(CCCN=C(N)N)C(=O)O)c2ccccc21` (centres undefined), the TGI in [1], in test [2], in test [3], in test [5], in [6] and in [7] was over 100 µM in each case. Also, the TGI in [17], in test [8], in [9], in [10], in [11] and in test [12] was over 100 µM each time. In addition, the TGI in test [18], in test [19], in test [13], in [14] and in [16] was over 100 µM in each case.
